This is an account of results in article PMC8878721, “Screening of TNFR1 Binding Peptides from Deinagkistrodon acutus Venom through Phage Display” (Toxins, 2022).

Data set [1] can be described thus: Dissolution test of DAvp-1. The class given is physicochemical. As for the experimental part: DAvp-1, which appeared in the white lyophilized powder, was synthesized following the solid phase peptide synthesis (SPPS) Fmoc protocol, and Mass Spectrometer (MS) and HPLC were used for quantitative and qualitative verification. A purity of 95.346% was determined with the HPLC methodology (Figure 3A). The mass-to-charge ratios of [M+8H]^8+, [M+7H]^7+, [M+6H]^6+, and [M+5H]^5+ were 594.5, 679.3, 792.3, and 950.5, respectively, and the highest peak of [M+5H]^5+ was selected to calculate the molecular weight (MW). The formula is (1) MW=m/z×C−C(1) where MW is the molecular weight, m/z is the mass-to-charge ratio, and C is the charge.
Homologous modeling has been developed for predicting the 3D structure of proteins and peptides originating from various organisms, and this most accurate modeling method was widely used in structural biology. Software simulations were applied to test if there was a positive interaction with TNFR1 [37]. […] A promising solubility is conducive to the development of drugs.

The subject of data set [2] is pro-inflammatory cytokines. The note with it: snake venom extracts; ref [2],[3],[4]; cited from earlier work. An excerpt: Snake venoms have been used as traditional Chinese medicines for hundreds of years, and they have a positive effect on autoimmune inflammatory diseases such as rheumatoid arthritis. However, their active, effective ingredients and their mechanisms of action are not fully understood yet. Studies have shown that snake venom is a mixture of proteins and peptides with various biological activities, including anti-tumor, anti-inflammatory, anti-stroke, and analgesic activities. For example, snake venom extracts such as Cathelicidin-BF and Cathelicidin-CATH can inhibit pro-inflammatory cytokin ...

For `CSCC[C@H](NC(=O)[C@H](CCCNC(=N)N)NC(=O)CNC(=O)[C@H](CCCNC(=N)N)NC(=O)[C@H](CC(C)C)NC(=O)[C@@H](NC(=O)[C@H](CC(C)C)NC(=O)[C@H](CO)NC(=O)[C@@H](N)CC(N)=O)C(C)C)C(=O)N[C@@H](CCCNC(=N)N)C(=O)N[C@@H](CC(=O)O)C(=O)N[C@H](C(=O)N[C@@H](CCCCN)C(=O)N[C@H](C(=O)N[C@@H](CCCNC(=N)N)C(=O)N[C@@H](CC(=O)O)C(=O)N[C@@H](CC(=O)O)C(=O)NCC(=O)N[C@@H](CCCNC(=N)N)C(=O)N[C@@H](CCCCN)C(=O)N[C@@H](CO)C(=O)N1CCC[C@H]1C(=O)N[C@@H](CO)C(=O)N[C@@H](Cc1c[nH]cn1)C(=O)N[C@@H](Cc1c[nH]cn1)C(=O)N[C@@H](CO)C(=O)N[C@@H](CCCCN)C(=O)N[C@@H](Cc1ccccc1)C(=O)N[C@@H](CO)C(=O)NCC(=O)NCC(=O)N[C@H](C(=O)N[C@@H](CCCNC(=N)N)C(=O)N[C@@H](CC(N)=O)C(=O)N[C@@H](Cc1c[nH]c2ccccc12)C(=O)N[C@@H](CCC(N)=O)C(=O)N[C@@H](CCCCN)C(=O)N[C@@H](CC(C)C)C(=O)N[C@H](C(=O)N[C@@H](CCCCN)C(=O)N[C@@H](CC(C)C)C(=O)O)C(C)C)[C@@H](C)O)C(C)C)C(C)C` [DAvp-1], the “solubility in PBS” value in data set [1] (1 × phosphate buffer saline (PBS) (pH 7.1), lyophilized powder, qualitative) is “could be dissolved”. In addition, in data set [1] (dimethyl sulfoxide (DMSO), lyophilized powder, qualitative), the “solubility in DMSO” value is reported as “could be dissolved”. Also, in data set [1] (dissolution test, in words), the “solubility (overall)” value was “good solubility”. Besides, in data set [1] (ultrapure water, lyophilized powder, qualitative), the “solubility in ultrapure water” value is “could be dissolved”.

As to Cathelicidin-BF, in data set [2], the “effect on pro-inflammatory cytokines” value was “can inhibit pro-inflammatory cytokines”.
